# Measured values reported in US9988407B2, “Prodrugs of prostate specific membrane antigen (PSMA) inhibitor” (THE JOHNS HOPKINS UNIVERSITY, priority 2014, dated 2018).
# “And” between values parts separate entries of the source, which are not always exact repeats. Equal entries are not always repeated.
# Assays:
# [1] = Chemical stability in HBSS buffer (pH 7.4) / simulated gastric fluid; assay type: physicochemical; conditions: chemical hydrolysis / HBSS buffer
# Procedure: The chemical stability of prodrugs was evaluated using simulated gastric fluid (pH 1.2) and Hanks' Balanced Salt Solution (HBSS) buffer (pH 7.4). Briefly, prodrugs were spiked (10 μM) in respective solutions and incubated at 37° C. for 1 h. At predetermined time points (0, 30 and 60 min), aliquots of 100 μL were removed and diluted with 100 μL of water. Prodrug disappearance was monitored using the developed liquid chromatography and tandem mass spectrometry (LC/MS/MS) method described below.
# (§1) For LC/MS/MS, prodrugs were separated with Thermo Scientific Accela UPLC system coupled to Accela open autosampler on an Agilent C18 (100×2.1 mm id) UPLC column. The autosampler was temperature controlled and operating at 10° C. The mobile phase used for the chromatographic separation was composed of acetonitrile/water containing 0.1% formic acid and was run at a flow rate of 0.5 mL/minute for 4.5 minutes using gradient elution. The column effluent was monitored using TSQ Vantage triple-quadrupole mass spectrometric detector, equipped with an electrospray probe set in the positive ionization mode. Samples were introduced into the ionization source through a heated nebulized probe (350° C.).
# (§2) For quantification of compound remaining, disappearance of prodrugs was measured from ratio of peak areas of analyte to IS. Percentage remaining was calculated in the following manner: […]
# [2] = Metabolic stability in mouse plasma; assay type: in vitro ADME; conditions: 10 μM, 37° C.
# Summary of the method: (§3)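 Prodrugs at 10 μM were incubated in plasma or liver microsomes at 37° C, with triplicate samples taken at 0, 30 and 60 min and quenched in cold acetonitrile. Loss of prodrug was followed by LC/MS/MS in positive electrospray mode. Percent remaining came from the analyte-to-internal-standard peak-area ratio.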
# [3] = Metabolic stability in mouse liver microsomes; assay type: in vitro ADME; conditions: 10 μM, 37° C.
# Summary of the method: as §3
# [4] = Metabolic stability in human plasma; assay type: in vitro ADME; conditions: 10 μM, 37° C.
# Summary of the method: as §3
# [5] = Metabolic stability in dog liver microsomes; assay type: in vitro ADME; conditions: 10 μM, 37° C.
# Procedure: (§4) For metabolic stability, plasma (mouse, dog, monkey and human) and liver microsomes (mouse, dog, monkey and human) were used. For stability, prodrugs (10 μM) were spiked in each matrix and incubated in an orbital shaker at 37° C. At predetermined times (0, 30 and 60 min), 100 μL aliquots of the mixture in triplicate were removed and the reaction quenched by addition of three times the volume of ice cold acetonitrile spiked with the internal standard (losartan 5 μM). The samples were vortexed for 30 s and centrifuged 12000 g for 10 min. 50 μL supernatant diluted with 50 μL water was transferred to a 250 μL polypropylene vial sealed with a Teflon cap. Prodrug disappearance was monitored over time using a liquid chromatography and tandem mass spectrometry (LC/MS/MS) method as described below.
# as §1, §2
# [6] = Metabolic stability in monkey plasma; assay type: in vitro ADME; conditions: 10 μM, 37° C.
# Procedure: as §4, §1, §2
# [7] = In vivo pharmacokinetics in mice, peroral, bioanalysis method 1 (total prodrug exposure); conditions: mice, oral dosing
# Summary of the method: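 Mice dosed orally; plasma sampled by cardiac puncture 0–4 h (n=3 per time) or at 30 min only. Total prodrug measured after methanol extraction and n-butanol/3N HCl derivatization by UPLC-MS/MS. Non-compartmental PK: observed Cmax/Tmax, AUC by log-linear trapezoidal rule, t1/2=0.693/ke.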
# [8] = In vivo pharmacokinetics in beagle dogs, p.o.; conditions: 10 mg/kg (equiv 2-PMPA), N=1, single dose
# Procedure: (by mouth). Blood samples were collected from the jugular vein (˜1 mL) via direct venipuncture, placed into potassium oxalate with sodium fluoride tubes, and maintained on wet ice until processed. Blood samples were centrifuged at a temperature of 4° C., at 3000×g, for 5 minutes. Blood samples were maintained chilled throughout processing. Plasma was collected in tubes and flash frozen. Samples were stored in a freezer set to maintain −60° C. to −80 OC until further analysis. […] The tissues were stored in −20° C. for 1 h and then homogenized. The calibration curve for the tissues was developed using naïve mouse brains from untreated animals as a matrix. For sciatic nerve, the nerves were weighed and homogenized in 50 μL methanol and the calibration curve was developed using naïve sciatic nerves from untreated animals as a matrix. The samples were vortexed and centrifuged. […] Supernatant was dried under a gentle stream of nitrogen at 45° C. and the residue reconstituted with 75 μL of acetonitrile and vortexed. 25 μL of derivatizing agent N-tert-Butyldimethysilyl-N-methyltrifluoro-acetamide (MTBSTFA) was added to microcentrifuge tubes, vortexed, and heated at ˜60 OC for 40 min. At the end of 40 min, the derivatized samples ˜75 μL were transferred to a 250 μL polypropylene vials and were analyzed via LC/MS/MS. […]
structure (smiles),measurement,setting,value
CC(C)OC(=O)OCOC(=O)C(CCC(=O)O)CP(=O)(OCOC(=O)OC(C)C)OCOC(=O)OC(C)C (stereo not drawn) [Compound 10],chemical stability,[1],sufficient chemical stability
same,Percentage remaining,[2]; 0 min,100%
same,Percentage remaining,[2]; 30 min,1%
same,Percentage remaining,[2]; 60 min,0%
same,Percentage remaining,[3]; 0 min,100%
same,Percentage remaining,[3]; 30 min,1%
same,Percentage remaining,[3]; 60 min,0%
same,Percentage remaining,[4]; 0 min,100%
same,Percentage remaining,"[4]; 30 min, listed as TRIS-POC",102% and 64%
same,Percentage remaining,"[4]; 60 min, listed as TRIS-POC",77% and 48%
same,Percentage remaining,[5]; 0 min,100%
same,Percentage remaining,[5]; 30 min,1%
same,Percentage remaining,[5]; 60 min,0%
same,Percentage remaining,[6]; 0 min,100%
same,Percentage remaining,[6]; 30 min,50%
same,Percentage remaining,[6]; 60 min,11%
same,permeability in vivo,[7],highest permeability
same,Cmax,[8],high Cmax
